Assay results taken from article PMC10221222 (Pharmaceutics, 2023).
Where two headings read alike, the source gives them in different places.

How the values were obtained:
[1] = test system: CH1/PA-1 (ovarian teratocarcinoma); test: MTT cytotoxicity assay, 96 h exposure, CH1/PA-1 cells; assay type: cell-based, human; details: pertains to dendrimer concentration for C1–C24
Procedure: (§1) Culture of and 96 h cytotoxicity tests in the human cell lines CH1/PA-1 (ovarian teratocarcinoma), SW480 (colon carcinoma) and A549 (non-small cell lung cancer) were performed as described previously, with the exception that test compounds were dissolved either in sterile water or supplemented MEM and then serially diluted in the latter medium.
(§2) Three human cancer cell lines differing in their chemosensitivity were employed for testing the cytotoxic potencies of all compounds: the broadly sensitive ovarian teratocarcinoma cell line CH1/PA-1, the multidrug-resistant non-small cell lung cancer cell line A549 and the colon cancer cell line SW480 with mostly intermediate sensitivity.

[2] = Reduction by ascorbic acid followed by time-dependent 1H NMR; assay type: physicochemical; details: for Reduction Half-Time: 1 mM Pt, 25 eq. ascorbic acid, phosphate-buffered D2O pD 7.4, ambient temperature; for percentage of the reduced species when measurement was stopped before the half-time: 1:25 ascorbic acid, pD 7.4, ambient temperature, at the time given as bound of the half-time
Procedure: The reduction of platinum(IV) complexes and representatives of each series of conjugates by ascorbic acid was observed by ^1H NMR spectroscopic measurements at ambient temperature. An amount of 1 mM solutions of platinum(IV) complexes 1–3, 5–7 as well as of the conjugates C2, C11, C13, C22–C24 referred to their corresponding platinum units were prepared in a D2O phosphate-buffered solution (50 mM) at physiological pD = 7.4. Afterwards, ascorbic acid was added as a reducing agent (25 mM, 25 eq.) and ^1H NMR measurements were performed for several days. The reduction behavior for substances 1–3, 5, 6, C2, C11, C13, C22, C23 was monitored by the resulting decrease in intensity of the acetato signal (release of acetic acid). The percentage of reduced species was determined by using the integration ratios of these two signals. Contrarily, ratios of signals of the succinato ligands and free succinic acid were consulted for the reduction determination of substances 7 and C24. However, the reduction half-time of C24 could not be obtained due to the superimposition of the succinato peaks with other signals.
Moreover, the reduction behavior of conjugates in comparison to unattached platinum(IV) complexes was investigated by time-dependent ^1H NMR spectroscopy (Table 3). In general, the reduction behavior is influenced by the nature of the ligands coordinated to the platinum(IV) core. […] In accordance with previous studies, the cisplatin core of substance 1 led to a faster reduction with a reduction half-time of 6 h, whereas only 6% of the carboplatin(IV) analog 2 was reduced after 95 h. Similar to complex 1, the two chlorido ligands of compound 6 allow fast electron transfer, thereby supporting rapid reduction. […] A potential connection between bulkiness and facilitated reduction has been reported in the literature. As further expected, the influence between G2 and G4 dendrimers on the reduction behavior is marginal due to the huge distance to the platinum(IV) core. Therefore, no significant difference in the rate of reduction between conjugates of G2 and G4 dendrimers was observed based on the measurements of C2 and C13, respectively.

SW480 (colon carcinoma) [3] = test: MTT cytotoxicity assay, 96 h exposure, SW480 cells; assay type: cell-based, human; details: pertains to dendrimer concentration for C1–C24
Procedure: as §1
as §2, with “sensitivity. This pattern of sensitivity also reflects throughout the data compiled here.” for “sensitivity.”

[4] = test system: A549 (non-small cell lung cancer); test: MTT cytotoxicity assay, 96 h exposure, A549 cells; assay type: cell-based, human; details: pertains to dendrimer concentration for C1–C24
Procedure: as §1
as §2, with “sensitivity. This pattern of sensitivity also reflects throughout the data compiled here.” for “sensitivity.”

SW480 (colon carcinoma) [5] = details: MTT, 96 h exposure; cited from earlier work
[6] = test system: CH1/PA-1 (ovarian teratocarcinoma); details: MTT, 96 h exposure; cited from earlier work
[7] = test system: A549 (non-small cell lung cancer); details: MTT, 96 h exposure; cited from earlier work
[8] = set-up: method as in PMID 10222430; details: cited from earlier work
[9] = test system: CT26 murine colon cancer allograft; test: Efficacy study in CT26-allograft-bearing mice (tumor volume, survival); assay type: in vivo, BALB/c mice; details: vs solvent control; i.v. twice a week for two weeks; C12 7.5 mg/kg, cisplatin 3 mg/kg
Procedure: All drugs were dissolved in 0.9% NaCl.
The promising effects further translate into a prolongation trend of animal survival (Figure 4). While in the cisplatin group, weight loss was critical in addition to tumor necrosis, even smaller tumors tended to get necrotic and broke up in C12-treated animals, making the sacrifice of the animals necessary due to ethical guidelines.

[10] = Tumor, organ and blood distribution of platinum by ICP-MS; assay type: in vivo, male CT26-allograft-bearing BALB/c mice; details: 24 h after second application
Procedure: Blood was taken after 30 min and 24 h after the first application from the facial vein and terminally by cardiac puncture 24 h after the second application. To separate serum from blood pellet, blood was twice spun down at 900 g for 10 min at 4 °C. The platinum amount of all samples was measured by ICP-MS.
Renal excretion and glomerular filtration are typical for ≤G4 PAMAM dendrimers and in general for nanoparticles smaller than 5 nm. […] Additionally, the influence of the molecular weight of nanoparticles on the biodistribution behavior was reported previously. […] On the contrary, the efficient kidney accumulation of this dendrimer preparation might also be considered in kidney-specific drug delivery approaches.

[11] = test system: CT26 murine colon cancer cells; test: MTT assay in murine cell line CT26; assay type: cell-based; details: 72 h exposure
Procedure: The MTT assay in the murine cell line CT26 was performed as described in [25].
cells, obtained by MTT assays with 72 h exposure time.

percentage of the reduced species when measurement was stopped before the half-time [2] [%] | Molecule | IC50 [1] [µM] | Reduction Half-Time [2] [h] | IC50 (SW480 (colon carcinoma) [3]) [µM] | IC50 [4] [µM] | IC50 (SW480 (colon carcinoma) [5]) [µM] | IC50 [6] [µM] | IC50 [7] [µM] | maximum tolerated dosage [8] [mg/kg] | maximum tumor growth inhibition effect [9] [%] | platinum content of blood cells ([10]; 30 min and 24 h after first) | platinum levels in lung tissue [10] | IC50 [11] [µM]
– | (OC-6-44)-(3-carboxypropanoato)(1R,2R-cyclohexanem-1,2-diamine)hydroxidooxalatoplatinum(IV) [Complex 7] | 5.2 ± 0.8 | ~29 | 20 ± 3 | 66 ± 2 | – | – | – | – | – | – | – | –
– | (OC-6-44)-Acetatodiammine(3-carboxypropanoato)dichloridoplatinum(IV) [Complex 1] | – | ~6 | – | – | 47 ± 11 | 1.2 ± 0.5 | 99 ± 17 | – | – | – | – | –
– | N.N.[Cl][Pt][Cl] [Cisplatin] | – | – | – | – | 2.3 ± 0.2 | 0.073 ± 0.001 | 3.8 ± 1 | 3 | 47.6 | blood cells contained enhanced platinum contents | higher levels were detected in lung tissue | 1.85
– | N.N.O=C([O-])C1(C(=O)[O-])CCC1.[Pt+2] [Carboplatin, reference compound] | – | – | – | – | 42 ± 10 | 0.79 ± 0.11 | 38 ± 3 | – | – | – | – | –
– | (OC-6-44)-Acetato(3-carboxypropanoato)dichlorido(1R,2R-cyclohexane-1,2-diamine)platinum(IV) [Complex 6] | 0.44 ± 0.1 | ~27 | 0.85 ± 0.14 | 2.8 ± 0.1 | – | – | – | – | – | – | – | –
14 | (OC-6-44)-Acetato(3-carboxypropanoato)(1R,2R-cyclohexane-1,2-diamine)oxalatoplatinum(IV) [Complex 3] | – | > 165 | – | – | 22 ± 8 | 4.1 ± 0.6 | 70 ± 29 | – | – | – | – | –
~23 | (OC-6-54)-Acetato(3-carboxypropanoato)(^13C2)oxalato(1R,2R,4R/1S,2S,4S)-(4-trifluoromethyl-cyclohexane-1,2-diamine)platinum(IV) [Complex 5] | 6 ± 0.9 | > 93 | 33 ± 5 | 54 ± 6 | – | – | – | – | – | – | – | –
– | O=C1[O][Pt]2([NH][C@@H]3CCCC[C@H]3[NH]2)[O]C1=O [Oxaliplatin, reference compound] | – | – | – | – | 0.29 ± 0.05 | 0.18 ± 0.01 | 0.98 ± 0.21 | – | – | – | – | –

Molecule | percentage of the reduced species when measurement was stopped before the half-time [2] [%] | IC50 [1] [µM] | Reduction Half-Time [2] [h] | IC50 (SW480 (colon carcinoma) [3]) [µM] | IC50 [4] [µM] | IC50 (SW480 (colon carcinoma) [5]) [µM] | IC50 [6] [µM] | IC50 [7] [µM] | maximum tolerated dosage [8] [mg/kg] | maximum tumor growth inhibition effect [9] [%] | platinum content of blood cells ([10]; 30 min and 24 h after first) | platinum levels in lung tissue [10] | IC50 [11] [µM]
(OC-6-44)-Acetaodiammine(3-carboxypropanoato)(cyclobutane-1,1-dicarboxylato)platinum(IV) [Complex 2] | 6 | – | > 95 | – | – | > 200 | 16 ± 6 | > 200 | – | – | – | – | –
